Each block holds one compound with its values, some of them ahead of it.
Tests used:
CYP2E1 = tested on: CYP2E1; design: method as in earlier work; conditions: FDA Orange Books ref 65, 66; cited from earlier work
CYP2A6 = tested on: CYP2A6; design: method as in earlier work; conditions: FDA Orange Books ref 65, 66; cited from earlier work
CYP1A2 = tested on: CYP1A2; design: method as in earlier work; conditions: FDA Orange Books ref 65, 66; cited from earlier work
ERα = molecular target: T1, ERα (Homo sapiens, UniProt P03372); conditions: MST
T1 sequence (P03372 1-595): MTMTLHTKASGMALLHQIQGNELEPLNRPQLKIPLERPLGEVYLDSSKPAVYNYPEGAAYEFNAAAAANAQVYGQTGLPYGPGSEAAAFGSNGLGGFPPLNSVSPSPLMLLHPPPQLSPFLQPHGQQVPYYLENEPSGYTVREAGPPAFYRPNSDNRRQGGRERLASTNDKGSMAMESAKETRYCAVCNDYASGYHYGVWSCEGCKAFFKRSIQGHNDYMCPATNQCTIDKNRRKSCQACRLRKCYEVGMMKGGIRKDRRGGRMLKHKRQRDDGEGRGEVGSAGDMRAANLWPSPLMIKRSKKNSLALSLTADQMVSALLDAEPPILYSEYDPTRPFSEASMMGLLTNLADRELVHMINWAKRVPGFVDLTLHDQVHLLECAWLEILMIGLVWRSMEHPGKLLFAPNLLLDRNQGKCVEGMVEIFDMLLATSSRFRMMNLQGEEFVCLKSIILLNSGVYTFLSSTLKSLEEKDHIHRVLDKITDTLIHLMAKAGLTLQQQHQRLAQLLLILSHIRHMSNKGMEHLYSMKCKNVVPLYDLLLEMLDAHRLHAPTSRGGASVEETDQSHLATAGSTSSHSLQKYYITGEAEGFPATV

Structure (SMILES): Cc1nc(Nc2ncc(C(=O)Nc3c(C)cccc3Cl)s2)cc(N2CCN(CCO)CC2)n1 [Dasatinib, dasatinib]
IC50 (CYP2E1): > 50 µM
IC50 (CYP2A6): 35 µM

Structure (SMILES): Cc1ccc(Nc2nccc(N(C)c3ccc4c(C)n(C)nc4c3)n2)cc1S(N)(=O)=O [Pazopanib, pazopanib]
IC50 (CYP1A2): 16 µM

interaction with ERα at detectable levels (ERα): did not interact
Structure (SMILES): CNC(=O)c1cc(Oc2ccc(NC(=O)Nc3ccc(Cl)c(C(F)(F)F)c3)cc2)ccn1 [Sorafenib, sorafenib]

Source: PMC9403029, “Identifying Novel Drug Targets by iDTPnd: A Case Study of Kinase Inhibitors” (Genomics, Proteomics & Bioinformatics, 2021)
